According to patent US7396834B2, “4(Phenyl-piperazinyl-methyl) benzamide derivatives and their use for the treatment of pain or gastrointestinal disorders” (AstraZeneca AB, priority 2002, dated 2008):

Columns and labels:
cloned human δ receptors [1] = target: T1, cloned human δ receptors (Homo sapiens, UniProt P41143); assay: Human δ receptor radioligand binding assay
T1 construct: expressed in transfected cells; host or cells: human HEK-293S cells, grown in suspension under geneticin selection
T1 sequence (P41143 whole entry): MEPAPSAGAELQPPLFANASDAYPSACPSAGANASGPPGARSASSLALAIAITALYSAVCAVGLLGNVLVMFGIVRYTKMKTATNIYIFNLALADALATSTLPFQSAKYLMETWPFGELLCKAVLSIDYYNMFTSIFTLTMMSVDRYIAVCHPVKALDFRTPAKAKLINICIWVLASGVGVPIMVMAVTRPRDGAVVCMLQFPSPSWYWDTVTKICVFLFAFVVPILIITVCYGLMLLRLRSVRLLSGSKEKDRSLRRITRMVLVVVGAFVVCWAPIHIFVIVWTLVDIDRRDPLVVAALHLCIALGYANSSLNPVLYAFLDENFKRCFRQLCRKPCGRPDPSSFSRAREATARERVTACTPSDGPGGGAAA

cloned human μ receptors = target: T2, cloned human μ receptors (Homo sapiens, UniProt P35372); assay: Human μ receptor radioligand binding assay
T2 construct: expressed in transfected cells; host or cells: human HEK-293S cells, grown in suspension under geneticin selection
T2 sequence (P35372 whole entry): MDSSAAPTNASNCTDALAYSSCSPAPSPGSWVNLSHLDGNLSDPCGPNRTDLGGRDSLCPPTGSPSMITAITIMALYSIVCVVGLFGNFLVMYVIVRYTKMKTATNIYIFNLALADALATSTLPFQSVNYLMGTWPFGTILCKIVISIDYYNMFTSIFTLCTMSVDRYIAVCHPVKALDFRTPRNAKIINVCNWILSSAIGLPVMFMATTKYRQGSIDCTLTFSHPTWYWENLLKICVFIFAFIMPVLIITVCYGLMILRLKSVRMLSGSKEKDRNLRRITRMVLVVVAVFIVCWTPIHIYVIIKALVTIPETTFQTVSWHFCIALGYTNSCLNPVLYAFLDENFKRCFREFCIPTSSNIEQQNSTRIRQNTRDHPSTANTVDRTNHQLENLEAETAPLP

[2] = target: T3, δ receptors in rat brain membranes (Rattus norvegicus, UniProt P33533); assay: Rat brain GTPγ35S functional assay; format: biochemical
T3 construct: membranes from HEK-293S cells expressing the cloned human opioid receptors or from homogenised rat and mouse brain; from tissue; host or cells: rat brain homogenate membranes
T3 sequence (P33533 whole entry): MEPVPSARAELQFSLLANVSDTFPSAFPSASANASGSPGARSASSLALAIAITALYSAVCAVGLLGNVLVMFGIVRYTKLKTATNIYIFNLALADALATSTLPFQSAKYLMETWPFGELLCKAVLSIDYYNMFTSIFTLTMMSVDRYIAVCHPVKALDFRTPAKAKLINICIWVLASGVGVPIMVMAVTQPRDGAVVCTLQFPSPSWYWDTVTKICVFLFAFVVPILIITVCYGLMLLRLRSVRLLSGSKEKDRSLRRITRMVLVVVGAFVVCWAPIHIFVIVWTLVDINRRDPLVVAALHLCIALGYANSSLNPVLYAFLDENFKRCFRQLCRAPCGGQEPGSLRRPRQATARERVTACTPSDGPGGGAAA
Protocol: Rat brains are weighed and rinsed in ice-cold PBS (containing 2.5 mM EDTA, pH 7.4). The brains are homogenized with a polytron for 30 sec (rat) in ice-cold lysis buffer (50 mM Tris, pH 7.0, 2.5mM EDTA, with phenylmethylsulfonyl fluoride added just prior use to […] from a 0.5M stock in DMSO:ethanol).
(§1) The agonist activity of the compounds is measured by determining the degree to which the compounds receptor complex activates the binding of GTP to G-proteins to which the receptors are coupled. In the GTP binding assay, GTP[γ]^35S is combined with test compounds and membranes from HEK-293S cells expressing the cloned human opioid receptors or from homogenised rat and mouse brain. Agonists stimulate GTP[γ]^35S binding in these membranes. The EC50 and Emax values of compounds are determined from dose-response curves. […] For human δ receptor functional assays, EC50 (low) is measured when the human δ receptors used in the assay were expressed at lower levels in comparison with those used in determining EC50 (high). […]
Rat brain membranes are thawed at 37° C., passed 3 times through a 25-gauge blunt-end needle and diluted in the GTPYS binding (50 mM Hepes, 20 mM NaOH, 100 mM NaCl, 1 mM EDTA, 5 mM MgCl2, pH 7.4, Add fresh: 1 mM DTT, 0.1% BSA). […] The basal and maximal stimulated binding are determined in absence and presence of 3 μM SNC-80.

cloned human κ receptors = cloned human κ receptors (Homo sapiens, UniProt P41145); assay: Human κ receptor radioligand binding assay; details: membranes of human 293S cells; Table 1
Chain of cloned human κ receptors (P41145 whole entry): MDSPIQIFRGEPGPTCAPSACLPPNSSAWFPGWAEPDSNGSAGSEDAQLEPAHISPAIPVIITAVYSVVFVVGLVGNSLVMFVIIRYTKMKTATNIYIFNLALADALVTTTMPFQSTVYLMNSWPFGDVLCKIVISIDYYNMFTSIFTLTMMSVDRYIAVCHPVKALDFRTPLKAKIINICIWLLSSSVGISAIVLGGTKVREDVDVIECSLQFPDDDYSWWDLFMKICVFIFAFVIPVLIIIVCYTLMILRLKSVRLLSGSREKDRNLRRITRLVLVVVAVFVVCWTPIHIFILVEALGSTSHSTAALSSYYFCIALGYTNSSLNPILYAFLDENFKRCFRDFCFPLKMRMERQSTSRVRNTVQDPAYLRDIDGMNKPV

cloned human δ receptors [3] = target: T1, cloned human δ receptors; assay: Human δ receptor GTP[γ]35S functional assay (high expression); format: biochemical
Protocol: (§2) Human 293S cells expressing cloned human κ, δ and μ receptors and neomycin resistance are grown in suspension at 37° C. and 5% CO2 in shaker flasks containing calcium-free DMEM10% FBS, 5% BCS, 0.1% Pluronic F-68, and 600 μg/ml geneticin.
Cells are pelleted and resuspended in lysis buffer (50 mM Tris, pH 7.0, 2.5 mM EDTA, with PMSF added just prior to use to 0.1 mM from a 0.1 M stock in ethanol), incubated on ice for 15 min, then homogenized with a polytron for 30 sec. The suspension is spun at 1000 g (max) for 10 min at 4° C. The supernatant is saved on ice and the pellets resuspended and spun as before. The supernatants from both spins are combined and spun at 46,000 g(max) for 30 min. The pellets are resuspended in cold Tris buffer (50 mM Tris/Cl, pH 7.0) and spun again. […] The protein concentrations are determined by a modified Lowry assay with sodium dodecyl sulfate.
as §1, with “In the GTP binding assay, GTP[γ]^35S is combined with test compounds and membranes from HEK-293S cells expressing the cloned human opioid receptors or from homogenised rat and mouse brain. Agonists stimulate GTP[γ]^35S binding in these membranes.” left out

cloned human δ receptors [4] = target: T1, cloned human δ receptors; assay: Human δ receptor GTP[γ]35S functional assay (low expression); format: biochemical; details: for Emax: relative to SNC80, lower expression level, range over the listed compounds
Protocol: as §2
Cells are pelleted and resuspended in lysis buffer (50 mM Tris, pH 7.0, 2.5 mM EDTA, with PMSF added just prior to use to 0.1 mM from a 0.1 M stock in ethanol), incubated on ice for 15 min, then homogenized with a polytron for 30 sec. The suspension is spun at 1000 g (max) for 10 min at 4° C. The supernatant is saved on ice and the pellets resuspended and spun as before. The supernatants from both spins are combined and spun at 46,000 g(max) for 30 min. The pellets are resuspended in cold Tris buffer (50 mM Tris/Cl, pH 7.0) and spun again. The final pellets are resuspended in membrane buffer (50 mM Tris, 0.32 M sucrose, pH 7.0). Aliquots (1 ml) in polypropylene tubes are frozen in dry ice/ethanol and stored at −70° C. until use. The protein concentrations are determined by a modified Lowry assay with sodium dodecyl sulfate.
The agonist activity of the compounds is measured by determining the degree to which the compounds receptor complex activates the binding of GTP to G-proteins to which the receptors are coupled. In the GTP binding assay, GTP[γ]^35S is combined with test compounds and membranes from HEK-293S cells expressing the cloned human opioid receptors or from homogenised rat and mouse brain. Agonists stimulate GTP[γ]^35S binding in these membranes. The EC50 and Emax values of compounds are determined from dose-response curves. Right shifts of the dose response curve by the delta antagonist naltrindole are performed to verify that agonist activity is mediated through delta receptors. For human δ receptor functional assays, EC50 (low) is measured when the human δ receptors used in the assay were expressed at lower levels in comparison with those used in determining EC50 (high). The Emax values were determined in relation to the standard δ agonist SNC80, i.e., higher than 100% is a compound that have better efficacy than SNC80.

[5] = Human δ IC50, Table 2, range over the listed compounds
[6] = Human μ IC50, Table 2, range over the listed compounds

CCN(CC)C(=O)c1ccc(C(c2cccc(C(N)=O)c2)N2CCN(Cc3ccccc3)CC2)cc1 (single isomer, unassigned) [Compound 1a, 3-[(4-[(diethylamino)carbonyl]phenyl)(4-benzyl-piperazin-1-yl)methyl]benzamide]
IC50 (cloned human δ receptors [1]; Human δ IC50, membranes of human 293S cells, displacement of radioligand, Table 1): 0.26 nM
IC50 (cloned human μ receptors; Human μ IC50, membranes of human 293S cells, Table 1): 7.7 nM
EC50 [2]: 0.2 nM
Emax ([2]; relative to SNC80, rat brain membranes): 170%
IC50 (cloned human κ receptors): 112 nM
EC50 (cloned human δ receptors [3]): 0.29 nM
Emax (cloned human δ receptors [3]; relative to standard δ agonist SNC80, higher expression level): 101%

CCN(CC)C(=O)c1ccc(C(c2cccc(C(N)=O)c2)N2CCN(Cc3ccccc3)CC2)cc1 (single isomer, unassigned) [Compound 1b, 3-[(4-[(diethylamino)carbonyl]phenyl)(4-benzyl-piperazin-1-yl)methyl]benzamide]
IC50 (cloned human δ receptors [1]; [5]): 0.14 to 3.73 nM
EC50 (cloned human δ receptors [4]): 0.5 to 83 nM
Emax (cloned human δ receptors [4]): 91 to 104%
IC50 (cloned human μ receptors; [6]): 45 to 1720 nM

CCN(CC)C(=O)c1ccc(C(c2cccc(C(N)=O)c2)N2CCN(Cc3ccco3)CC2)cc1 (single isomer, unassigned) [Compound 2a, 3-{(4-[(diethylamino)carbonyl]phenyl)[4-(2-furylmethyl)-piperazin-1-yl]methyl}benzamide]
IC50 (cloned human δ receptors [1]; [5]): 0.14 to 3.73 nM
EC50 (cloned human δ receptors [4]): 0.5 to 83 nM
Emax (cloned human δ receptors [4]): 91 to 104%
IC50 (cloned human μ receptors; [6]): 45 to 1720 nM

CCN(CC)C(=O)c1ccc(C(c2cccc(C(=O)NC)c2)N2CCN(Cc3ccccc3)CC2)cc1 (single isomer, unassigned) [Compound 3a, 3-[[4-[(diethylamino)carbonyl]phenyl][4-(phenylmethyl)-1-piperazinyl]methyl]-N-methyl-benzamide]
IC50 (cloned human δ receptors [1]; [5]): 0.14 to 3.73 nM
EC50 (cloned human δ receptors [4]): 0.5 to 83 nM
Emax (cloned human δ receptors [4]): 91 to 104%
IC50 (cloned human μ receptors; [6]): 45 to 1720 nM
